Source: patent US20230108408A1, “OXALAMIDE SUBSTITUTED HETEROCYCLIC COMPOUNDS AS MODULATORS OF THE ARYL HYDROCARBON RECEPTOR (AHR)” (PHENEX PHARMACEUTICALS AG, priority 2020, published 2023)

Target: T1, AhR (Homo sapiens, UniProt P35869)
T1 construct: The HepG2 CYP1A1-Luc cells do express basal luciferase activity that can be increased via potent AhR agonists or decreased via potent AhR antagonists; endogenous in cells
T1 sequence (P35869 11-848): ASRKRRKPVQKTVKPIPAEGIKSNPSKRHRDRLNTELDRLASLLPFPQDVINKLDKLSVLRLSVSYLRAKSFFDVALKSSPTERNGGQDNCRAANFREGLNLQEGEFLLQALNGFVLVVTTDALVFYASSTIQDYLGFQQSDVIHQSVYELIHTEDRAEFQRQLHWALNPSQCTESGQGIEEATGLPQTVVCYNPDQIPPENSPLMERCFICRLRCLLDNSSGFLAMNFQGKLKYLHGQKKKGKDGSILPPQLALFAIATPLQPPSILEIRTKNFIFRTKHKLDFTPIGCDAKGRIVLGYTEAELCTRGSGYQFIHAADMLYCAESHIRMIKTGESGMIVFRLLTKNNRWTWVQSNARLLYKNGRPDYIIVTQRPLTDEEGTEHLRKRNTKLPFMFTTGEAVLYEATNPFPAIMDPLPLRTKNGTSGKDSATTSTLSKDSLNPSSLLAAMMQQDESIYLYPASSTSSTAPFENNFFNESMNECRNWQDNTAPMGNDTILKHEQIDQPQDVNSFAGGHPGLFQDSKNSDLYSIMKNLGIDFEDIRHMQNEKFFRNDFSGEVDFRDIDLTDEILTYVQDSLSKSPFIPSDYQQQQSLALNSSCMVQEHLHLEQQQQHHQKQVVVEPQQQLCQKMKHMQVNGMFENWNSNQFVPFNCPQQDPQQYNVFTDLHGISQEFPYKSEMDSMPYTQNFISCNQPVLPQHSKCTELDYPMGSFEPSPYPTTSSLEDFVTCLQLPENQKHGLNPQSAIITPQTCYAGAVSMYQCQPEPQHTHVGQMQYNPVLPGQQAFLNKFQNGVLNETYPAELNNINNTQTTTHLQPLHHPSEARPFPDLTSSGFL
Test: AhR Direct Luciferase Reporter Assay in HepG2 Cells
Assay type: cell-based
Conditions: AhR antagonistic potency; HepG2 CYP1A1-Luc cells, 18 hours, no exogenous AhR agonist or 10 nM VAF347
Excerpt: AhR Direct Luciferase Reporter Assay in HepG2 Cells.
A stable cell line (HepG2 CYP1A1-LUC) was used in which part of the promoter region of the human CYP1A1 gene is stably integrated into the genome of human HepG2 hepatocytes (DSZM #ACC 180) in front of a Photinus pyralis Firefly Luciferase gene. A 1210 bp fragment comprising part of the human CYP1A1 promoter was isolated via SacI and BgIII restriction digestion from Lightswitch Clone S714555 (SwitchGearGenomics) and inserted between the SacI and BgIII sites in pGL4.30 (Promega #E8481) in front of the Firefly Luciferase gene. The resulting vector was linearized with NotI, transfected into HepG2 cells (DSMZ #ACC 180) and stably transfected clones selected with 250 μg/ml Hygromycin B. After repetitive rounds of subcloning and testing for robustly regulated luciferase activity after AhR agonist stimulation, a stable clonal HepG2 CYP1A1-Luc cell line was selected.
The HepG2 CYP1A1-Luc cells do express basal luciferase activity that can be increased via potent AhR agonists or decreased via potent AhR antagonists, added to the growth medium of the cells.
In typical reporter assays performed with this cell line, cells are grown in 96-well plates and AhR modulators are titrated into the growth medium in serial dilutions in RPMI-1640 Medium (Sigma #R7509) supplemented with 8.6% fetal calf serum (Sigma #F7524) and containing either no exogenous AhR agonist or 10 nM of the potent AhR agonist VAF347 (Calbiochem #182690). Cells are further cultivated for 18 hours and luciferase activities are determined from extracts of cells in buffers containing D-Luciferine and ATP using a LUMIstar Optima microplate Luminometer from BMG Labtech.

`N#Cc1ccc(C(F)(F)F)c(-c2cc3ccc(NC(=O)C(=O)N4CCOCC4)nc3[nH]2)c1` [1/1] gave an IC50 of 100 to 1000 nM.
`CN1CCN(C(=O)C(=O)Nc2ccc3cc(-c4cc(C#N)ccc4C(F)(F)F)[nH]c3n2)CC1` [1/2] was tested, and the IC50 was > 1000 nM.
In the case of `CN(CC(F)(F)F)C(=O)C(=O)Nc1ccc2cc(-c3cc(C#N)ccc3C(F)(F)F)[nH]c2n1` [1/3], the IC50 is reported as < 100 nM.
`COCCN(C)C(=O)C(=O)Nc1ccc2cc(-c3cc(C#N)ccc3C(F)(F)F)[nH]c2n1` [1/4] was tested, and the IC50 was 100 to 1000 nM.
`N#Cc1ccc(C(F)(F)F)c(-c2cc3ccc(NC(=O)C(=O)N4CCC5(CC5)C4)nc3[nH]2)c1` [1/5] was tested, and the IC50 was < 100 nM.
`CC1CCN1C(=O)C(=O)Nc1ccc2cc(-c3cc(C#N)ccc3C(F)(F)F)[nH]c2n1` (stereo not shown) [1/6] was tested, and the IC50 was < 100 nM.
With `N#Cc1ccc(C(F)(F)F)c(-c2cc3ccc(NC(=O)C(=O)N4CCC4)nc3[nH]2)c1` [1/7] the IC50 was 100 to 1000 nM.
Work on `N#Cc1ccc(C(F)(F)F)c(-c2cc3ccc(NC(=O)C(=O)NCc4ccccc4)nc3[nH]2)c1` [2/1, N^1-Benzyl-N^2-(2-(5-cyano-2-(trifluoromethyl)phenyl)-1H-pyrrolo[2,3-b]pyridin-6-yl)oxalamide] yielded an IC50 of 100 to 1000 nM.
With `N#Cc1ccc(C(F)(F)F)c(-c2cc3ccc(NC(=O)C(=O)N4CCCC4)nc3[nH]2)c1` [Example 1, N-(2-(5-Cyano-2-(trifluoromethyl)phenyl)-1H-pyrrolo[2,3-b]pyridin-6-yl)-2-oxo-2-(pyrrolidin-1-yl)acetamide] the IC50 was < 100 nM.
For `CC1(O)CN(C(=O)C(=O)Nc2ccc3cc(-c4cc(C#N)ccc4C(F)(F)F)[nH]c3n2)C1` [Example 2, N-(2-(5-Cyano-2-(trifluoromethyl)phenyl)-1H-pyrrolo[2,3-b]pyridin-6-yl)-2-(3-hydroxy-3-methylazetidin-1-yl)-2-oxoacetamide], the IC50 was 100 to 1000 nM.
